# Experiment: Transdermal delivery of melatonin: plasma level of melatonin after applying composition to skin of a subject
# Settings: human, plasma, topical, 3 mg, Plasma level of melatonin; for concentration at 4 h / concentration at 4 hr: 4 hr after transdermal administration; for concentration at 8 h / concentration at 8 hr: 8 hr after transdermal administration; for concentration at 0 h / concentration at 0 hr: 0 hr after transdermal administration; for concentration at 1 h / concentration at 1 hr: 1 hr after transdermal administration; for concentration at 2 h / concentration at 2 hr: 2 hr after transdermal administration; for concentration at 0 hr / concentration at 1 hr / concentration at 2 hr / concentration at 4 hr / concentration at 8 hr: 0.30 mL applied to skin
# [1] = Table 20 control, A− N/A, helper esters 0 mM, 2.0 mL applied
# [2] = Tryptophan butyl ester hydrochloride 235.90 mM, 0.3 mL applied to skin
# [3] = Tryptophan ethyl ester hydrochloride 260.47 mM, 0.3 mL applied to skin
# [4] = Tryptophan isopropyl ester hydrochloride 247.52 mM, 0.3 mL applied to skin
# [5] = Tyrosine isopropyl ester 269.50 mM
# [6] = Tyrosine pentyl ester 243.25 mM
# [7] = salt of tryptophan isopropyl ester, A− = AcO^−, 228.48 mM, 0.30 mL applied
# [8] = salt of tryptophan isopropyl ester, A− = Benzoate ion, 189.98 mM, 0.30 mL applied
# [9] = salt of tryptophan isopropyl ester, A− = Br^−, 220.92 mM, 0.30 mL applied
# [10] = salt of tryptophan isopropyl ester, A− = Citrate ion, 159.67 mM, 0.30 mL applied
smiles,measurement,setting,value
COc1ccc2[nH]cc(CCNC(C)=O)c2c1 [Melatonin],concentration at 4 h,[1],0.1 ng/mL
same,concentration at 8 h,[1],0.1 ng/mL
same,concentration at 0 h,[2],0 ng/mL
same,concentration at 1 h,[2],1.8 ng/mL
same,concentration at 2 h,[2],1.9 ng/mL
same,concentration at 4 h,[2],1.7 ng/mL
same,concentration at 8 h,[2],1.7 ng/mL
same,concentration at 0 h,[3],0 ng/mL
same,concentration at 1 h,[3],2 ng/mL
same,concentration at 2 h,[3],2.2 ng/mL
same,concentration at 4 h,[3],1.9 ng/mL
same,concentration at 8 h,[3],1.8 ng/mL
same,concentration at 2 h,[4],2.8 ng/mL
same,concentration at 4 h,[4],2.7 ng/mL
same,concentration at 8 h,[4],2.5 ng/mL
same,concentration at 0 hr,[5],0 ng/mL
same,concentration at 1 hr,[5],2.1 ng/mL
same,concentration at 2 hr,[5],2.9 ng/mL
same,concentration at 4 hr,[5],2.7 ng/mL
same,concentration at 8 hr,[5],2.8 ng/mL
same,concentration at 0 hr,[6],0 ng/mL
same,concentration at 1 hr,[6],1.8 ng/mL
same,concentration at 2 hr,[6],2.1 ng/mL
same,concentration at 4 hr,[6],2.2 ng/mL
same,concentration at 8 hr,[6],2.1 ng/mL
same,concentration at 0 hr,Tyrosine propyl ester 269.5 mM,0 ng/mL
same,concentration at 1 hr,Tyrosine propyl ester 269.5 mM,2 ng/mL
same,concentration at 2 hr,Tyrosine propyl ester 269.5 mM,2.5 ng/mL
same,concentration at 4 hr,Tyrosine propyl ester 269.5 mM,2.6 ng/mL
same,concentration at 8 hr,Tyrosine propyl ester 269.5 mM,2.6 ng/mL
same,concentration at 0 h,[7],0 ng/mL
same,concentration at 1 h,[7],1.9 ng/mL
same,concentration at 2 h,[7],2.2 ng/mL
same,concentration at 4 h,[7],2.1 ng/mL
same,concentration at 8 h,[7],2 ng/mL
same,concentration at 0 h,[8],0 ng/mL
same,concentration at 1 h,[8],1.8 ng/mL
same,concentration at 2 h,[8],1.8 ng/mL
same,concentration at 4 h,[8],2 ng/mL
same,concentration at 8 h,[8],1.7 ng/mL
same,concentration at 0 h,[9],0 ng/mL
same,concentration at 1 h,[9],2.4 ng/mL
same,concentration at 2 h,[9],2.9 ng/mL
same,concentration at 4 h,[9],2.6 ng/mL
same,concentration at 8 h,[9],2.6 ng/mL
same,concentration at 0 h,[10],0 ng/mL
same,concentration at 1 h,[10],2.1 ng/mL
same,concentration at 2 h,[10],2.3 ng/mL
same,concentration at 4 h,[10],2.4 ng/mL
same,concentration at 8 h,[10],2.1 ng/mL
same,concentration at 0 h,"salt of tryptophan isopropyl ester, A− = Cl^−, 247.52 mM, 0.30 mL applied",0 ng/mL

# — US9962369B2, “Methods and compositions for transdermal delivery” (SPRAYABLE HOLDINGS, INC., priority 2014, dated 2018)
